# Test results as given in EP0261503B1, “Heterocyclic amido derivatives of substituted benzoic acids and therapeutic compositions which contain them as active principle” (VALEAS S.p.A. INDUSTRIA CHIMICA E FARMACEUTICA, priority 1986, dated 1988).
# Assays:
# [1] = test system: passive cutaneous anaphylaxis; experiment: passive cutaneous anaphylaxis test (PCA) in the rat, oral administration; format: in vivo; conditions: PCA test on the rat, oral administration 30 minutes before antigen challenge; for Activity: relative to Tranilast = 1
# Procedure: The products of general formula (I) listed in Table 1 were subjected to a first pharmacological screening to evaluate their activity after oral administration in the passive cutaneous anaphylaxis test (PCA) in the rat in accordance with Goose J. and Blair A.M.J.N. (Immunology, 16, 749-760, 1969). Serum, obtained from rats actively sensitized with ovalbumin and suitably diluted, was injected intradermally into the shave back of male Sprague Dawley rats, and after 24 hours these were treated intravenously with a solution of ovalbumin and Evans blue. Thirty minutes after the antigen challenge, the animals were sacrificed and the diameter and intensity of the blue halo which has formed in the intradermal injection site was measured. The compounds according to the invention, and also tranilast (N-3ʹ, 4ʹ-dimethoxycinnamoyl) anthranilic acid) used as reference standard, were dissolved-suspended in suitable solvents (carboxymethylcellulose, gum arabic, DMSO etc.) and administered orally thirty minutes before the antigen challenge. Table 2 lists the ED₅₀ values and the relative confidence limits at p = 0.05.
# [2] = test system: passive cutaneous anaphylaxis; experiment: passive cutaneous anaphylaxis test (PCA) in the rat, intraperitoneal administration; format: in vivo; conditions: ip, PCA test on the rat, 15 minutes before antigen challenge, versus control group
# Procedure: The products of general formula (I) listed in Table 1 were subjected to a first pharmacological screening to evaluate their activity after oral administration in the passive cutaneous anaphylaxis test (PCA) in the rat in accordance with Goose J. and Blair A.M.J.N. (Immunology, 16, 749-760, 1969). Serum, obtained from rats actively sensitized with ovalbumin and suitably diluted, was injected intradermally into the shave back of male Sprague Dawley rats, and after 24 hours these were treated intravenously with a solution of ovalbumin and Evans blue. Thirty minutes after the antigen challenge, the animals were sacrificed and the diameter and intensity of the blue halo which has formed in the intradermal injection site was measured. Some of the compounds according to the invention were subjected to a further passive cutaneous anaphylaxis test evaluation to determine their efficiency after intraperitoneal administration at a dose of 100 mg/kg, fifteen minutes before the challenge. […]
smiles,measurement,setting,value
"CCOC(=O)c1cc(C)sc1-n1c(=O)[nH]c2c(OC)cccc2c1=O [Compound 32, 8-METHOXY-3-[(3-ETHOXY CARBONYL-5-METHYL)-THIENYL]-2,4 QUINAZOLONE]",ED₅₀,[1],0.08 mmoles/kg/os
same,Activity,[1],4.0
same,inhibition at 100 mg/kg,[2],52.7%
"CCOC(=O)c1cc(C)sc1NC(=O)c1cccc(OC)c1NC(C)=O [Compound 15, 3-THIOPHENE CARBOXYLIC ACID, 2-[(2-ACETYL AMINO-3-METHOXY BENZOYL)AMINO]-5-METHYL, ETHYL ESTER]",ED₅₀,[1],0.013 mmoles/kg/os
same,Activity,[1],24.6
"CCOC(=O)C(O)c1csc(-n2c(=O)[nH]c3c(OC)cccc3c2=O)n1 (stereo not drawn) [Compound 36, 8-METHOXY-3-[[5-(α-HYDROXY ETHYL ACETATE)]-THIAZENYL]-2,4 QUINAZOLONE]",ED₅₀,[1],0.054 mmoles/kg/os
same,Activity,[1],5.9
same,inhibition at 100 mg/kg,[2],40.7%
"CCOC(=O)c1cc(C)sc1NC(=O)c1cccc(OC)c1N [Compound 7, 3-THIOPHENE CARBOXYLIC ACID, 2[(2-AMINO-3-METHOXY BENZOYL)AMINO]-5-METHYL-ETHYL ESTER]",Activity,[1],450.7
same,inhibition at 100 mg/kg,[2],31.9%
"CCOC(=O)c1cc(C)sc1NC(=O)c1cccc(OC)c1[N+](=O)[O-] [Compound 1, 3-thiophene carboxylic acid-2-[(2-nitro-3-methoxybenzoyl)amino]-5-methyl ethyl ester]",ED₅₀,[1],0.21 mmoles/kg/os
same,Activity,[1],1.5
same,inhibition at 100 mg/kg,[2],59.4%
"COc1cccc(C(=O)Nc2sc(C)cc2C(=O)O)c1N [Compound 16, 3-THIOPHENE CARBOXYLIC ACID, 2-[(2-AMINO-3-METHOXY BENZOYL)AMINO]-5-METHYL]",Activity,[1],41.0
CCOC(=O)Cc1csc(NC(=O)c2cc(C)ccc2N)n1 [Compound 37],Activity,[1],213.3
same,inhibition at 100 mg/kg,[2],88.4%
"COc1ccc(C=CC(=O)Nc2ccccc2C(=O)O)cc1OC [Tranilast, N-(3ʹ,4ʹ-dimethoxycinnamoyl) anthranilic acid, reference compound]",ED₅₀,[1],0.32 mmoles/kg/os
same,Activity,[1],1
"CCOC(=O)Cc1csc(NC(=O)c2cccc(OC)c2N)n1 [Compound 25, 4-THIAZOLE ACETIC ACID, 2-[(2-AMINO-3-METHOXY BENZOYL)AMINO], ETHYL ESTER]",Activity,[1],64.0
same,inhibition at 100 mg/kg,[2],43.1%
"CCOC(=O)C(=O)Nc1c(OC)cccc1C(=O)Nc1sc(C)cc1C(=O)OCC [Compound 18, 3-THIOPHENE CARBOXYLIC ACID, 2-[[2-AMINO(OXOACETIC ACID ETHYL ESTER)-3-METHOXY BENZOYL] AMINO]-5-METHYL, ETHYL ESTER]",Activity,[1],114.3
